From patent US20140303092A1 (CHIMERIX, INC., priority 2011, published 2014)

Assay: Study HDP-CDV-201: safety and tolerability (adverse events, laboratory abnormalities, discontinuations)
Assay type: in vivo, human (adult allogeneic HSCT recipients)
Description: Clinical Studies of HDP-CDV were performed and described in detail in the following Examples. For example, HDP-CDV-201 is a placebo-controlled, dose-escalating trial in HSCT CMV (R+) recipients, evaluating the ability of HDP-CDV to prevent or control CMV infection was carried out. Five cohorts were established in which participants or subjects received either placebo or the HDP-CDV orally, in doses ranging from 40 mg weekly (QW) to 200 mg twice weekly (BIW). Subjects who were post-HSCT were enrolled at the time of engraftment and randomized to HDP-CDV or placebo (3 to 1 ratio) and received blinded therapy until approximately 100 day post-transplantation. HDP-CDV doses were 40 mg QW, 100 mg QW, 200 mg QW, 200 mg BIW and 100 mg BIW. Escalation to the next dose was decided by the data monitoring committee after review of the safety data from the previous Cohort. Subjects who developed CMV disease or CMV infection requiring pre-emptive therapy with local standard of care were discontinued from blinded therapy and followed for 4 weeks. Subjects who completed treatment with blinded therapy were followed for 8 weeks post-therapy.
Data from Study HDP-CDV-201 also provided characterization of the safety and tolerability profile of HDP-CDV when administered for the prevention or control of CMV infection in high risk (R^+) post-HSCT adult subjects.
The Safety population (SAFETY) included all randomized subjects who took at least one dose of study treatment. This population was used to summarize safety outcomes based on the treatment actually received, in cases where a subject was treated contrary to the randomization schedule.
The safety and tolerability profile of HDP-CDV, including subject demographics and Baseline characteristics; the AE profile; and laboratory abnormalities of interest were analyzed in the cohorts followed in this investigation.
Subjects completing the treatment period received a full course of study medication; those completing the entire study attended visits through 8 weeks of follow up. Subjects who discontinued treatment may have done so for protocol specified reasons (e.g. development of clinically significant CMV infection requiring preemptive treatment with excluded anti-CMV medications) or for other reasons (e.g., withdrawal, adverse events, loss to follow-up). The disposition of subjects in Study HDP-CDV-201 during the double-blind, placebo-controlled treatment period (through Week 11) is listed by dosing Cohort in TABLE 23.
Adverse events were examined by severity to ensure that all safety signals were identified in this study population. Because of the frequency of events in HSCT recipients, particular attention was given to evaluation of Grade 3 […], 4 (severe), and 5 (fatal) adverse events.
Only those preferred terms for which at least one Grade 3 or higher event was experienced in any treatment group are listed. Cytomegalovirus-related AEs are excluded from this analysis.
HDP-CDV is a lipid conjugate of CDV. Because CDV is known to have adverse effects on renal function and bone marrow, decreased GFR and persistent neutropenia were identified as AEs of special interest. Key renal and hematological (TABLE 30) laboratory parameters were measured and listed below by Study HDP-CDV-201 treatment groups. TABLE 30 includes abnormal levels of serum creatinine, neutrophils, platelets, WBCs, and hemoglobin and includes data at Screening and during the treatment period.
A common metric for unit based dosing of medications is by weight (mg/kg). When the distribution of weights was examined for all subjects participating in the study, the median was 78 kg and the lower 25th percentile weight was approximately 65 kg, which translates to a cut-off of ˜3 mg/kg for a 200 mg total weekly dose. Based upon this approach, a cut-off of 3 mg/kg was used to assess the frequency of diarrhea and associated GI AEs reported for the subjects in Cohorts 3 or 4a (TABLE 40).

## CCCCCCCCCCCCCCCCOCCCOP(=O)(O)COC(CO)Cn1ccc(N)nc1=O (stereo not drawn) [HDP-CDV]
40 mg QW
  TEAE ALT increased, Frequency: 2 (8.0%)
  TEAE ALT increased, Grade 2: 1 (4.0%)
  TEAE ALT increased, Grade 3: 1 (4.0%)
  TEAE ALT increased, Grade 4: 0
  TEAE ALT increased, Grade 5: 0
  TEAE AML, Recurrent, Frequency: 3 (12.0%)
  TEAE AML, Recurrent, Grade 2: 0
  TEAE AML, Recurrent, Grade 3: 0
  TEAE AML, Recurrent, Grade 4: 1 (4.0%)
  TEAE AML, Recurrent, Grade 5: 0
  TEAE AST increased, Frequency: 1 (4.0%)
  TEAE AST increased, Grade 2: 0
  TEAE AST increased, Grade 3: 1 (4.0%)
  TEAE AST increased, Grade 4: 0
  TEAE AST increased, Grade 5: 0
  TEAE Abdominal pain, Frequency: 4 (16.0%)
  TEAE Abdominal pain, Grade 2: 0
  TEAE Abdominal pain, Grade 3: 1 (4.0%)
  TEAE Abdominal pain, Grade 4: 0
  TEAE Abdominal pain, Grade 5: 0
  TEAE Acute GVHD, Frequency: 6 (24.0%)
  TEAE Acute GVHD, Grade 2: 2 (8.0%)
  TEAE Acute GVHD, Grade 3: 1 (4.0%)
  TEAE Arthralgias, Frequency: 0
  TEAE Arthralgias, Grade 2: 0
  TEAE Arthralgias, Grade 3: 0
  TEAE Arthralgias, Grade 4: 0
  TEAE Arthralgias, Grade 5: 0
  TEAE Back Pain, Frequency: 0
  TEAE Back Pain, Grade 2: 0
  TEAE Back Pain, Grade 3: 0
  TEAE Back Pain, Grade 4: 0
  TEAE Back Pain, Grade 5: 0
  TEAE Decreased appetite, Frequency: 4 (16.0%)
  TEAE Decreased appetite, Grade 2: 1 (4.0%)
  TEAE Decreased appetite, Grade 3: 1 (4.0%)
  TEAE Decreased appetite, Grade 4: 0
  TEAE Decreased appetite, Grade 5: 0
  TEAE Diarrhea, Frequency: 3 (12.0%)
  TEAE Diarrhea, Grade 2: 2 (8.0%)
  TEAE Diarrhea, Grade 3: 0
  TEAE Diarrhea, Grade 4: 0
  TEAE Diarrhea, Grade 5: 0
  TEAE Fatigue, Frequency: 1 (4.0%)
  TEAE Fatigue, Grade 2: 0
  TEAE Fatigue, Grade 3: 0
  TEAE Fatigue, Grade 4: 0
  TEAE Fatigue, Grade 5: 0
  TEAE GGT Increased, Frequency: 0
  TEAE GGT Increased, Grade 2: 0
  TEAE GGT Increased, Grade 3: 0
  TEAE GGT Increased, Grade 4: 0
  TEAE GGT Increased, Grade 5: 0
  TEAE Generalized oedema, Frequency: 1 (4.0%)
  TEAE Generalized oedema, Grade 2: 1 (4.0%)
  TEAE Generalized oedema, Grade 3: 0
  TEAE Generalized oedema, Grade 4: 0
  TEAE Generalized oedema, Grade 5: 0
  TEAE Hyperbilirubinaemia, Frequency: 1 (4.0%)
  TEAE Hyperbilirubinaemia, Grade 2: 0
  TEAE Hyperbilirubinaemia, Grade 3: 0
  TEAE Hyperbilirubinaemia, Grade 4: 1 (4.0%)
  TEAE Hyperbilirubinaemia, Grade 5: 0
  TEAE Hyperglycaemia, Frequency: 1 (4.0%)
  TEAE Hyperglycaemia, Grade 2: 1 (4.0%)
  TEAE Hyperglycaemia, Grade 3: 0
  TEAE Hyperglycaemia, Grade 4: 0
  TEAE Hyperglycaemia, Grade 5: 0
  TEAE Hyperkalemia, Frequency: 1 (4.0%)
  TEAE Hyperkalemia, Grade 2: 0
  TEAE Hyperkalemia, Grade 3: 0
  TEAE Hyperkalemia, Grade 4: 0
  TEAE Hyperkalemia, Grade 5: 0
  TEAE Hypocalcaemia, Frequency: 1 (4.0%)
  TEAE Hypocalcaemia, Grade 2: 1 (4.0%)
  TEAE Hypocalcaemia, Grade 3: 0
  TEAE Hypocalcaemia, Grade 4: 0
  TEAE Hypocalcaemia, Grade 5: 0
  TEAE Hypokalaemia, Frequency: 4 (16.0%)
  TEAE Hypokalaemia, Grade 2: 0
  TEAE Hypokalaemia, Grade 3: 2 (8.0%)
  TEAE Hypokalaemia, Grade 4: 0
  TEAE Hypokalaemia, Grade 5: 0
  TEAE Hyponatraemia, Frequency: 3 (12.0%)
  TEAE Hyponatraemia, Grade 2: 1 (4.0%)
  TEAE Hyponatraemia, Grade 3: 1 (4.0%)
  TEAE Hyponatraemia, Grade 4: 0
  TEAE Hyponatraemia, Grade 5: 0
  TEAE LFT Abnormal, Frequency: 0
  TEAE LFT Abnormal, Grade 2: 0
  TEAE LFT Abnormal, Grade 3: 0
  TEAE LFT Abnormal, Grade 4: 0
  TEAE LFT Abnormal, Grade 5: 0
  TEAE Leukocytosis, Frequency: 1 (4.0%)
  TEAE Leukocytosis, Grade 2: 0
  TEAE Leukocytosis, Grade 3: 0
  TEAE Leukocytosis, Grade 4: 0
  TEAE Leukocytosis, Grade 5: 0
  TEAE Nausea, Frequency: 6 (24.0%)
  TEAE Nausea, Grade 2: 2 (8.0%)
  TEAE Nausea, Grade 3: 1 (4.0%)
  TEAE Nausea, Grade 4: 0
  TEAE Nausea, Grade 5: 0
  TEAE Neutropenia, Frequency: 2 (8.0%)
  TEAE Neutropenia, Grade 2: 0
  TEAE Neutropenia, Grade 3: 2 (8.0%)
  TEAE Neutropenia, Grade 4: 0
  TEAE Neutropenia, Grade 5: 0
  TEAE Pneumonia, Frequency: 1 (4.0%)
  TEAE Pneumonia, Grade 2: 0
  TEAE Pneumonia, Grade 3: 0
  TEAE Pneumonia, Grade 4: 1 (4.0%)
  TEAE Pneumonia, Grade 5: 0
  TEAE Pyrexia, Frequency: 1 (4.0%)
  TEAE Pyrexia, Grade 2: 1 (4.0%)
  TEAE Pyrexia, Grade 3: 0
  TEAE Pyrexia, Grade 4: 0
  TEAE Pyrexia, Grade 5: 0
  TEAE Renal Failure, Frequency: 1 (4.0%)
  TEAE Renal Failure, Grade 2: 0
  TEAE Renal Failure, Grade 3: 1 (4.0%)
  TEAE Renal Failure, Grade 4: 0
  TEAE Renal Failure, Grade 5: 0
  TEAE Staphylococcal Bacteremia, Frequency: 0
  TEAE Staphylococcal Bacteremia, Grade 2: 0
  TEAE Staphylococcal Bacteremia, Grade 3: 0
  TEAE Staphylococcal Bacteremia, Grade 4: 0
  TEAE Staphylococcal Bacteremia, Grade 5: 0
  TEAE Thrombocytopenia, Frequency: 3 (12.0%)
  TEAE Thrombocytopenia, Grade 2: 1 (4.0%)
  TEAE Thrombocytopenia, Grade 3: 1 (4.0%)
  TEAE Thrombocytopenia, Grade 4: 1 (4.0%)
  TEAE Thrombocytopenia, Grade 5: 0
  TEAE Vomiting, Frequency: 2 (8.0%)
  TEAE Vomiting, Grade 2: 1 (4.0%)
  TEAE Vomiting, Grade 3: 0
  TEAE Vomiting, Grade 4: 0
  TEAE Vomiting, Grade 5: 0
  subjects discontinued due to acute renal failure: one
40 mg QW, n = 25
  Subjects Reporting Diarrhea as an AE: 3 (12.0%)
40 mg QW, active treatment period
  Discontinuation: Death: 1 (4.0%) Subject n (%)
40 mg QW, active treatment period through Week 11
  Discontinuation: Adverse event: 3 (12.0%) Subject n (%)
100 mg BIW
  TEAE ALT increased, Frequency: 9 (18.0%)
  TEAE ALT increased, Grade 2: 1 (2.0%)
  TEAE ALT increased, Grade 3: 4 (8.0%)
  TEAE ALT increased, Grade 4: 0
  TEAE ALT increased, Grade 5: 0
  TEAE AML, Recurrent, Frequency: 3 (6.0%)
  TEAE AML, Recurrent, Grade 2: 1 (2.0%)
  TEAE AML, Recurrent, Grade 3: 0
  TEAE AML, Recurrent, Grade 4: 1 (2.0%)
  TEAE AML, Recurrent, Grade 5: 1 (2.0%)
  TEAE AST increased, Frequency: 5 (10.0%)
  TEAE AST increased, Grade 2: 1 (2.0%)
  TEAE AST increased, Grade 3: 3 (6.0%)
  TEAE AST increased, Grade 4: 0
  TEAE AST increased, Grade 5: 0
  TEAE Abdominal pain, Frequency: 13 (26.0%)
  TEAE Abdominal pain, Grade 2: 1 (2.0%)
  TEAE Abdominal pain, Grade 3: 1 (2.0%)
  TEAE Abdominal pain, Grade 4: 0
  TEAE Abdominal pain, Grade 5: 0
  TEAE Acute GVHD, Frequency: 32 (64.0%)
  TEAE Acute GVHD, Grade 2: 11 (22.0%)
  TEAE Acute GVHD, Grade 3: 12 (24.0%)
  TEAE Acute GVHD, Grade 4: 5 (10.0%)
  TEAE Arthralgias, Frequency: 3 (6.0%)
  TEAE Arthralgias, Grade 2: 1 (2.0%)
  TEAE Arthralgias, Grade 3: 1 (2.0%)
  TEAE Arthralgias, Grade 4: 0
  TEAE Arthralgias, Grade 5: 0
  TEAE Back Pain, Frequency: 4 (8.0%)
  TEAE Back Pain, Grade 2: 3 (6.0%)
  TEAE Back Pain, Grade 3: 0
  TEAE Back Pain, Grade 4: 0
  TEAE Back Pain, Grade 5: 0
  TEAE Decreased appetite, Frequency: 9 (18.0%)
  TEAE Decreased appetite, Grade 3: 3 (6.0%)
  TEAE Decreased appetite, Grade 4: 0
  TEAE Decreased appetite, Grade 5: 0
  TEAE Diarrhea, Frequency: 26 (52.0%)
  TEAE Diarrhea, Grade 2: 6 (12.0%)
  TEAE Diarrhea, Grade 3: 9 (18.0%)
  TEAE Diarrhea, Grade 4: 0
  TEAE Diarrhea, Grade 5: 0
  TEAE Fatigue, Frequency: 9 (18.0%)
  TEAE Fatigue, Grade 2: 2 (4.0%)
  TEAE Fatigue, Grade 3: 0
  TEAE Fatigue, Grade 4: 0
  TEAE Fatigue, Grade 5: 0
  TEAE GGT Increased, Frequency: 4 (8.0%)
  TEAE GGT Increased, Grade 2: 1 (2.0%)
  TEAE GGT Increased, Grade 3: 3 (6.0%)
  TEAE GGT Increased, Grade 4: 0
  TEAE GGT Increased, Grade 5: 0
  TEAE Generalized oedema, Frequency: 1 (2.0%)
  TEAE Generalized oedema, Grade 2: 1 (2.0%)
  TEAE Generalized oedema, Grade 3: 0
  TEAE Generalized oedema, Grade 4: 0
  TEAE Generalized oedema, Grade 5: 0
  TEAE Hyperbilirubinaemia, Frequency: 3 (6.0%)
  TEAE Hyperbilirubinaemia, Grade 2: 1 (2.0%)
  TEAE Hyperbilirubinaemia, Grade 3: 0
  TEAE Hyperbilirubinaemia, Grade 4: 0
  TEAE Hyperbilirubinaemia, Grade 5: 0
  TEAE Hyperglycaemia, Frequency: 9 (18.0%)
  TEAE Hyperglycaemia, Grade 2: 4 (8.0%)
  TEAE Hyperglycaemia, Grade 3: 2 (4.0%)
  TEAE Hyperglycaemia, Grade 4: 1 (2.0%)
  TEAE Hyperglycaemia, Grade 5: 0
  TEAE Hyperkalemia, Frequency: 3 (6.0%)
  TEAE Hyperkalemia, Grade 2: 2 (4.0%)
  TEAE Hyperkalemia, Grade 3: 0
  TEAE Hyperkalemia, Grade 4: 0
  TEAE Hyperkalemia, Grade 5: 0
  TEAE Hypocalcaemia, Frequency: 2 (4.0%)
  TEAE Hypocalcaemia, Grade 2: 1 (2.0%)
  TEAE Hypocalcaemia, Grade 3: 1 (2.0%)
  TEAE Hypocalcaemia, Grade 4: 0
  TEAE Hypocalcaemia, Grade 5: 0
  TEAE Hypokalaemia, Frequency: 8 (16.0%)
  TEAE Hypokalaemia, Grade 2: 2 (4.0%)
